{
  "source": "patent US12370212B2",
  "about": "“Intradialytic use of sodium thiosulfate” (Hope Medical Enterprises, Inc., priority 2017, dated 2025)",
  "key": {"[1]": {"details": "60 mg sample, 2 mL of 0.1 N hydrochloric acid, 80° C., approximately 24 hours", "protocol": "(§1) Concentration of thiosulfate in samples was assayed by ion chromatography. The ion chromatograph was equipped with an electrochemical conductivity detector and a Dionex IonPacAS12A analytical column. The sodium thiosulfate content in the samples tested was calculated against an external sodium thiosulfate standard. USP Sodium Thiosulfate Reference Standard (Item Number 1615107) was the testing standard (United States Pharmacopeia. Rockville, Maryland)."}, "[2]": {"details": "for Sulfate Concentration / Sulfide Concentration / Sulfite Concentration: degradation product, dialysate bicarbonate concentrate + sodium thiosulfate; for Measured Sodium Thiosulfate Concentration: dialysate bicarbonate concentrate, room temperature, expected 1.61 mg/mL", "protocol": "as §1\nExample 2 was performed to determine the stability of sodium thiosulfate in dialysate bicarbonate concentrate solution. At room temperature, 12500 mg sodium thiosulfate (50 mL of 250 mg/mL solution) was added to 7,700 mL of dialysate bicarbonate concentrate solution. The thiosulfate concentration of the dialysate bicarbonate concentrate solution was analyzed by ion chromatography 1) before addition of sodium thiosulfate; 2) 5 minutes after the addition of sodium thiosulfate; and 3) 2 hours after the addition of sodium thiosulfate."}, "[3]": {"details": "mixed dialysate exiting hemodialysis machine; expected 0.0608 mg/L", "protocol": "as §1\nThe machine was primed in bypass mode (dialysate and ultrafiltration rates set at zero) using normal saline."}, "[4]": {"details": "for Thiosulfate Concentration After the Addition of Sodium Thiosulfate (Time = 60 Min): average of two samples", "protocol": "as §1\nDialysate bicarbonate concentrate solution was prepared by adding 1 package of Centrisol© MB-330 Series Sodium Bicarbonate Concentrate powder (650 g) to 7.7 liters of purified water.\nThe hemodialysis machine mixed the bicarbonate concentrate solution and acid concentrate solution with the dilution ratio of 1 part of an acid concentrate solution, 1.72 parts of a bicarbonate concentrate solution, and 42.38 parts of purified water. The machine was primed in bypass mode (dialysate and ultrafiltration rates set at zero) using normal saline. After priming, the hemodialysis machine was run in “Therapy Mode” with the following settings: blood flow rate 300 mL/minute, dialysate flow rate 600 mL/minute, ultrafiltration rate 0 mL/minute.\nAn aqueous solution of sodium thiosulfate was prepared by dissolving 25 mg of sodium thiosulfate in 1 liter of purified water. […] This valve was placed in the dialysate tubing approximately eight inches upstream of the dialyzer (pre-filter). Two sampling ports were placed four inches upstream (pre-dialyzer sampling port) and ten inches downstream (post-dialyzer sampling port) from the dialyzer to collect samples of dialysate for […] assay by ion chromatography.\nThe infusion pump infused the sodium thiosulfate solution into the tubing through the valve at a rate of 250 mL/hour (4.16 mL/minute).\nNormal saline flowed into the dialyzer at a rate of 300 mL/minute from the Arterial line and exited the dialyzer through the Venous line. Samples of saline were collected from the venous side of the dialyzer."}, "[5]": {"details": "during the first hour of hemodialysis; cited from earlier work"}, "[6]": {"details": "material safety data sheet; cited from earlier work"}},
  "note": "Like-named read-outs stand apart in the source and are kept apart here.",
  "data": [
    {"smiles": "O=S(O)(O)=S", "note": "[Sodium Thiosulfate, sodium thiosulfate]", "values": [
      {"measurement": "percentage of thiosulfate degradation", "setting": "[1]", "result": 28.6, "unit": "%"},
      {"measurement": "Sulfate Concentration", "setting": "[2]; after 5 minutes", "result": 4.4, "unit": "µg/mL"},
      {"measurement": "Sulfide Concentration", "setting": "[2]; after 5 minutes", "result": "<2.5", "unit": "µg/mL"},
      {"measurement": "Sulfite Concentration", "setting": "[2]; after 5 minutes", "result": 5.9, "unit": "µg/mL"},
      {"measurement": "Sulfate Concentration", "setting": "[2]; after 2 hours", "result": 4.3, "unit": "µg/mL"},
      {"measurement": "Sulfide Concentration", "setting": "[2]; after 2 hours", "result": "<2.5", "unit": "µg/mL"},
      {"measurement": "Sulfite Concentration", "setting": "[2]; after 2 hours", "result": 5.4, "unit": "µg/mL"},
      {"measurement": "Measured Sodium Thiosulfate Concentration", "setting": "[2]; after 5 minutes", "result": 1.65, "unit": "mg/mL"},
      {"measurement": "Measured Sodium Thiosulfate Concentration", "setting": "[2]; after 2 hours", "result": 1.65, "unit": "mg/mL"},
      {"measurement": "stability in dialysate bicarbonate concentrate solution (in words)", "setting": "[2]; over 2 hours", "result": "stable"},
      {"measurement": "Thiosulfate Concentration by Assay", "setting": "[3]", "result": 0.001824},
      {"measurement": "passage along or through dialyzer (in words)", "setting": "[4]; added to unspiked dialysate between hemodialysis machine and dialyzer membrane", "result": "can either pass along or pass through a dialyzer"},
      {"measurement": "Thiosulfate Concentration After the Addition of Sodium Thiosulfate (Time = 60 Min)", "setting": "[4]; dialysate after dialyzer", "result": 2.20, "unit": "µM"},
      {"measurement": "Thiosulfate Concentration After the Addition of Sodium Thiosulfate (Time = 60 Min)", "setting": "[4]; dialysate before dialyzer", "result": 4.04, "unit": "µM"},
      {"measurement": "Thiosulfate Concentration After the Addition of Sodium Thiosulfate (Time = 60 Min)", "setting": "[4]; saline solution after dialyzer (venous side)", "result": 1.62, "unit": "µM"},
      {"measurement": "decline of concentration of thiosulfate in the plasma", "setting": "[5]", "result": "over 60%"},
      {"measurement": "behaviour on contact with acid (in words)", "setting": "[6]", "result": "decomposes on contact with acid"}
    ]}
  ]
}
